The subject of data set [1] is semi-synthetic organism (SSO) (strain YZ3). Nature of the data set: Replication and UBP retention in vivo in the semi-synthetic organism (streptavidin biotin shift, PAGE), Example 1. It counts as cell-based, Escherichia coli. The following applies: Table 5, dTPT3TP 25 μM. The procedure:
All bacteria were cultured in 100 μL of liquid 2×YT media (casein peptone 16 g/L, yeast extract 10 g/L, NaCl 5 g/L) supplemented with potassium phosphate (50 mM, pH 7) in 96-well microwell plates. When noted, antibiotics were used at the following concentrations: chloramphenicol, 5 μg/mL; ampicillin, 100 μg/mL. Cell growth, indicated as OD600, was measured using a Perkin Elmer EnVision 2103 Multilabel Reader with a 590/20 nm filter. Unless otherwise stated, molecular biology reagents were purchased from New England Biolabs (Ipswich, MA) and were used according to the manufacturer's protocols. As necessary, purification of nucleic acids was accomplished by micro-elution columns (Zymo Research Corp; Irvine, CA). All natural oligonucleotides were purchased from IDT (San Diego, CA), and oligonucleotides containing dNaM were synthesized by Biosearch Technologies (Petaluma, CA) with purification by reverse phase cartridge. Unnatural nucleotide triphosphates were prepared, and confirmed by MALDI-TOF and UV/Vis.
Plasmids containing the dNaM-dTPT3 UBP were prepared and used to transform the semi-synthetic organism (SSO). To create a template for in vivo replication assays, Golden Gate assembly was used to construct a derivative of the pUC19 plasmid in which a single dNaM-dTPT3 UBP was embedded within the TK1 sequence ([…]; […]), a context within which the UBP is well replicated in the SSO. Plasmids were then used to transform the SSO (strain YZ3). Following transformation, the SSO was allowed to recover at 37° C. for 1 h in media containing dNaMTP (125 μM) and dTPT3TP (25 μM). Cells were pelleted by centrifugation, resuspended in fresh media lacking unnatural triphosphates, split into 100-μL aliquots and then used to inoculate cultures containing different pairs of unnatural triphosphates at the specified concentrations. When the cell density reached an OD600 of ˜0.7, cells were pelleted and plasmids were recovered and PCR amplified with d5SICSTP and a biotinylated analog of dNaMTP, and UBP retention was determined by comparing the intensity of the streptavidin shifted and unshifted bands via PAGE.

Data set [2] has as its target T1, Klenow fragment of E. coli DNA polymerase I (Escherichia coli, UniProt P00582).
T1 construct: the Klenow fragment of E. coli DNA polymerase I
Nature of the data set: Steady-state kinetic assay of unnatural triphosphate insertion. The class given is biochemical.

The subject of data set [3] is OneTaq DNA polymerase. Put plainly: PCR amplification fidelity of DNA containing a single UBP (UBP retention in vitro). The class given is biochemical. The following applies: with dTPT3TP, 20 cycles. The text has this:
The fidelity with which DNA containing a single UBP is PCR amplified was explored using OneTaq DNA polymerase. To quantify fidelity, templates containing the dNaM-dTPT3 UBP were amplified with dTPT3TP and dNaMTP, dPTMOTP or dMTMOTP. Two templates were used where the UBP was flanked by different sequence contexts; T1, where X (X=NaM, or after the first round of replication, NaM, PTNO, or MTMO) is flanked by a 5′ dA and a 3′ dT, and which with X=dNaM is well replicated in the SSO, and T2 where X is flanked by a 5′ dC and a 3′ dG, and which with X=dNaM is poorly replicated in the SSO. DNA was amplified for 20 cycles with extension times of either 1 min or 45 s, with the shorter times used to probe amplification efficiency. After amplification, the DNA was purified and UBP retention was characterized via a second PCR amplification using OneTaq and DeepVent DNA polymerases and a biotinylated analog of dNaMTP, whose product was analyzed by PAGE.

Data set [4] relates to SSO (strain YZ3). Put plainly: UBP retention in vivo in the SSO (biotin shift assay), Example 2. It counts as cell-based, Escherichia coli. The text has this:
Thus, to evaluate the UBPs in the in vivo environment of the SSO, Golden Gate assembly was used to construct four derivatives of the pUC19 plasmid containing a single dNaM-dTPT3 UBP, but where it was flanked by one of four different sequence contexts, context 1-4. These sequence contexts show decreasing UBP retention with dNaM-dTPT3. Plasmids were used to transform the SSO (strain YZ3), which was allowed to recover briefly in media containing dTPT3TP and either dNaMTP, dPTMOTP, or dMTMOTP. After transfer to fresh media containing the same triphosphates and ampicillin (to select for plasmid retention), the SSO was allowed to grow to an OD600 of ˜0.7, at which time plasmids were recovered and analyzed for UBP retention the same biotin shift assay described above. FIG. 9 exemplifies the results in vivo.

[5] abbreviates: insertion of dXTP opposite dY = dTPT3 in template.
The mark [6] stands for this setting: template T1 (5′ dA, 3′ dT), extension time 45 s.
[7] abbreviates: template T1 (5′ dA, 3′ dT), extension time 1 min.
Setting [8] is: template T2 (5′ dC, 3′ dG), extension time 45 s.
The mark [9] stands for this setting: template T2 (5′ dC, 3′ dG), extension time 1 min.
Setting [10] is: context d(ANaMT) / AXT, dTPT3TP 25 μM, triphosphate 5 μM.
The mark [11] stands for this setting: context d(ANaMT) / AXT, dTPT3TP 25 μM, triphosphate 10 μM.
Where [12] appears, read: context d(ANaMT), with dTPT3TP, triphosphate 25 μM.
The mark [13] stands for this setting: context d(ANaMT), with dTPT3TP, triphosphate 150 μM.
The mark [14] stands for this setting: context d(CNaMC), with dTPT3TP, triphosphate 25 μM.
Setting [15] is: context d(CNaMC), with dTPT3TP, triphosphate 150 μM.
[16] abbreviates: context d(CNaMG), with dTPT3TP, triphosphate 25 μM.
[17] abbreviates: context d(CNaMG), with dTPT3TP, triphosphate 150 μM.

Values joined by “and” are separate entries in the source; they are usually repeats but may differ in a detail not shown here. Equal values may be shown once.

The Km is the concentration of substrate that gives half-maximal velocity. A word on the kcat: it is the maximal rate divided by the concentration of active sites.

T1 sequence (P00582 324-928): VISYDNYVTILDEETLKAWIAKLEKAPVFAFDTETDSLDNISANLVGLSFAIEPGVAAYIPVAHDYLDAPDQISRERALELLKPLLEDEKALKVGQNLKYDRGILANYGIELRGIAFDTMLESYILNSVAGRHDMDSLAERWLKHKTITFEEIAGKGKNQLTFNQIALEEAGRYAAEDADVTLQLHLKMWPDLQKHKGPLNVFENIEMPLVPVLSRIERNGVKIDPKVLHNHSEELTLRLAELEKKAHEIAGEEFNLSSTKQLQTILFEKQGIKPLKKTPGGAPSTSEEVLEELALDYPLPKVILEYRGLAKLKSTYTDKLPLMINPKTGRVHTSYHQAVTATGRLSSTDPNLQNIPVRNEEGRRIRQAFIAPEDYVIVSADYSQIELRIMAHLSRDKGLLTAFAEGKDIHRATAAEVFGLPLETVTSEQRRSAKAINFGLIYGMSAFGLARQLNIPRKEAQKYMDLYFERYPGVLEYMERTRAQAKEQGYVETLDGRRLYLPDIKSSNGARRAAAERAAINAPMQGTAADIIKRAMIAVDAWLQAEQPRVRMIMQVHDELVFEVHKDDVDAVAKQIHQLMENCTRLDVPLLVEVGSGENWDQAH

Consider `COc1cc2ccccc2cc1[C@H]1C[C@H](O)[C@@H](COP(=O)(O)OP(=O)(O)OP(=O)(O)O)O1` [dNaMTP, reference compound], for which the “UBP retention (%)” value in data set [1] (sequence context 1 (AXT), dNaMTP or dCNMOTP 25 μM) is listed as 85%; in data set [1] (sequence context 1 (AXT), dNaMTP or dCNMOTP 25 μM, listed as dNaM), 85 ± 10%; in data set [1] (sequence context 1 (AXT), dNaMTP or dCNMOTP 125 μM) it was 99 ± 3%; in data set [1] (sequence context 2 (AXA), dNaMTP or dCNMOTP 25 μM) it was 36%; in data set [1] (sequence context 2 (AXA), dNaMTP or dCNMOTP 25 μM, listed as dNaM), 36 ± 29%; in data set [1] (sequence context 2 (AXA), dNaMTP or dCNMOTP 125 μM), 73%. Also, the “UBP retention (%)” value was 73 ± 21% in data set [1] (sequence context 2 (AXA), dNaMTP or dCNMOTP 125 μM, listed as dNaM); “no retention” in data set [1] (sequence context 3 (CXC), dNaMTP or dCNMOTP 25 μM); 7 ± 2% in data set [1] (sequence context 3 (CXC), dNaMTP or dCNMOTP 25 μM, listed as dNaM); 26% in data set [1] (sequence context 3 (CXC), dNaMTP or dCNMOTP 125 μM); 26 ± 16% in data set [1] (sequence context 3 (CXC), dNaMTP or dCNMOTP 125 μM, listed as dNaM); “not retained significantly” in data set [1] (sequence context 4 (CXG), dNaMTP or dCNMOTP 25 μM). Besides, the “UBP retention (%)” value in data set [1] (sequence context 4 (CXG), dNaMTP or dCNMOTP 25 μM, listed as dNaM) is given as 9 ± 1%; in data set [1] (sequence context 4 (CXG), dNaMTP or dCNMOTP 125 μM), “not retained significantly”; in data set [1] (sequence context 4 (CXG), dNaMTP or dCNMOTP 125 μM, listed as dNaM), 13 ± 2%. Moreover, the Michaelis-Menten constant (Km) in data set [2] (setting [5]) is 0.09 µM. Besides, the kcat in data set [2] (setting [5]) stood at 0.178 s⁻¹. Besides, the “UBP retention after PCR amplification” value in data set [3] (setting [6]) is 95%; in data set [3] (setting [7]) it was 100%; in data set [3] (setting [8]), 85%; in data set [3] (setting [9]), 86%. Moreover, the UBP retention in data set [4] (setting [10]) is 17% and 17±21%; in data set [4] (setting [11]) it was 29% and 29±11%; in data set [4] (setting [12]) it was 82%; in data set [4] (setting [13]), 98%; in data set [4] (setting [14]) it was 7%; in data set [4] (setting [15]), 44%. Further, the UBP retention in data set [4] (setting [16]) worked out at 5%; in data set [4] (setting [17]), 6%.

In the case of `Cc1cn([C@H]2C[C@H](O)[C@@H](COP(=O)(O)OP(=O)(O)OP(=O)(O)O)O2)c(=O)[nH]c1=O` [dTTP, reference compound], the turnover number (kcat) in data set [2] (insertion opposite dY = dA in template) was 0.085 s⁻¹ and 0.0853 ± 0.0127 s⁻¹.

Consider `COc1cc2ccsc2cc1C1CC(O)C(COP(=O)(O)OP(=O)(O)OP(=O)(O)O)O1` (stereo not shown) [dMTMOTP], for which the Km in data set [2] (setting [5]) amounted to 0.22 µM. In addition, the kcat in data set [2] (setting [5]) is 0.142 s⁻¹ and 0.142 ± 0.0283 s⁻¹. Moreover, the “UBP retention after PCR amplification” value in data set [3] (setting [6]) was 84%; in data set [3] (setting [7]), 80%; in data set [3] (setting [8]), 58%; in data set [3] (setting [9]) it was 58%. Besides, the UBP retention in data set [4] (setting [10]) was 59% and 59±24%; in data set [4] (setting [11]), 80% and 80±11%; in data set [4] (setting [12]), 96%; in data set [4] (setting [13]), 99%; in data set [4] (setting [14]), 19%; in data set [4] (setting [15]), 62%. The UBP retention stood at 5% in data set [4] (setting [16]) and 8% in data set [4] (setting [17]).

Consider `COc1cc2sccc2cc1[C@H]1C[C@H](O)[C@@H](COP(=O)(O)OP(=O)(O)OP(=O)(O)O)O1` [dPTMOTP], for which the Km in data set [2] (setting [5]) was determined as 0.08 µM. The kcat in data set [2] (setting [5]) is 0.323 s⁻¹ and 0.323 ± 0.02 s⁻¹. In addition, the “UBP retention after PCR amplification” value in data set [3] (setting [6]) was 90%; in data set [3] (setting [7]), 98%; in data set [3] (setting [8]), 74%; in data set [3] (setting [9]), 78%. In addition, the toxicity to cells result in data set [4] (SSO cells, concentration matrix 5-150 μM, context CXC) is given as “not toxic to cells”. Besides, the “effective concentration can be dropped to” value in data set [4] (context CXC (difficult to replicate sequences)) amounted to 100 µM. The “UBP retention (Avg)” value in data set [4] (context CXC, dPTMOTP 5 μM, dTPT3TP 5 μM) is reported as 7%; in data set [4] (context CXC, dPTMOTP 5 μM, dTPT3TP 25 μM) it was 7%; in data set [4] (context CXC, dPTMOTP 5 μM, dTPT3TP 100 μM), 10%; in data set [4] (context CXC, dPTMOTP 5 μM, dTPT3TP 150 μM) it was 7%; in data set [4] (context CXC, dPTMOTP 25 μM, dTPT3TP 5 μM) it was 18%; in data set [4] (context CXC, dPTMOTP 25 μM, dTPT3TP 25 μM), 59%. In addition, the “UBP retention (Avg)” value in data set [4] (context CXC, dPTMOTP 25 μM, dTPT3TP 100 μM) came to 63%; in data set [4] (context CXC, dPTMOTP 25 μM, dTPT3TP 150 μM) it was 47%; in data set [4] (context CXC, dPTMOTP 100 μM, dTPT3TP 5 μM), 58%; in data set [4] (context CXC, dPTMOTP 100 μM, dTPT3TP 25 μM) it was 89%; in data set [4] (context CXC, dPTMOTP 100 μM, dTPT3TP 100 μM), 93%; in data set [4] (context CXC, dPTMOTP 100 μM, dTPT3TP 150 μM), 66%. Further, the “UBP retention (Avg)” value in data set [4] (context CXC, dPTMOTP 150 μM, dTPT3TP 5 μM) turned out to be 61%; in data set [4] (context CXC, dPTMOTP 150 μM, dTPT3TP 25 μM), 103%; in data set [4] (context CXC, dPTMOTP 150 μM, dTPT3TP 100 μM) it was 90%; in data set [4] (context CXC, dPTMOTP 150 μM, dTPT3TP 150 μM), 64%. In addition, the UBP retention in data set [4] (setting [10]) is 77% and 77±22%; in data set [4] (setting [11]), 92% and 92±6%; in data set [4] (setting [12]), 99%; in data set [4] (setting [13]), 98%; in data set [4] (setting [14]) it was 55%; in data set [4] (setting [15]), 97%. Besides, the UBP retention is reported as 2% in data set [4] (setting [16]) and 7% in data set [4] (setting [17]).

(Values after patent US12497642B2, “Incorporation of unnatural nucleotides and methods of use in vivo thereof” (THE SCRIPPS RESEARCH INSTITUTE, priority 2017, dated 2025).)
